Reference: patent US12516034B2, “Process for preparing high-density quercetin” (TRADICHEM INDUSTRIAL SERVICES, S.L., priority 2022, dated 2026)

Key:
Format in all cases: physicochemical
[1] = Carr index (compressibility index), powder flowability; details: for Compressibility (Carr Index): calculated from bulk and tapped density; for Flowability (type of flow according to Table 1): classification by Carr index / Hausner ratio
Method: The Carr index, also called Carr's index or compressibility index, is calculated according to the following formula: Free flowing powders have smaller values of the Carr index than poor flowing powders. In general, a Carr index greater than 25 is considered to be an indication of poor flowability, and below 15, of good flowability. The relationship between Carr index and/or Hausner ratio with powder flowability is well recognized in the art, for example, as disclosed by M. E. Aulton, in “Powder flow”, chapter 12 of the well-recognized reference book in pharmaceutical technology “Aulton's Pharmaceutics. The design and manufacture of medicines”, Fifth Edition 2018, M. E. Aulton and K. M. G. Taylor, Editors, Elsevier Ltd, as summarized in Table 1: Carr index was calculated from the bulk and tapped density measured values, using the following formula: […]

[2] = Angle of repose; details: tan^-1 (height/radius) of cone after pouring
Description: The “angle of repose” is another parameter for indirectly quantifying powder flowability. It is the angle at which a material will rest on a stationary heap, specifically, is the angle formed by the heap slope and the horizontal plane. It may be calculated by different methods, commonly, just pouring the material on a flat surface. It also can be calculated as “drained angle of repose”, as the angle measured on the internal conical face of a material which has been formed when drained from an orifice of a flat-bottomed container to the horizontal. A dynamic angle of repose can also be used, which is the angle to the horizontal of the free surface formed in a relatively slowly rotating drum (Aulton, op. cit., pg. 197). In this case, the lower the value of the angle of repose, the higher the flowability of the material. It is generally considered that an angle of repose higher than 45 correlates with poor flowability, whereas an angle of repose under 30 correlates with excellent flowability. The angle of repose was determined by measuring the radius and the height of the cone formed after pouring the powder, using the formula tan^−1 (height/radius).

[3] = Tapped density (PT-TD200 Tap Density Tester); details: after mechanical tapping
Method: On the other hand, tapped density, also called compacted density, of a powder is the ratio of the mass of the powder to the volume occupied by the powder after it has been tapped for a defined period of time. Tapped density is measured by first gently introducing a known sample mass into a graduated cylinder and carefully levelling the powder without compacting it. The cylinder is then mechanically tapped by raising the cylinder and allowing it to drop under its own weight using a suitable mechanical tapped density tester that provides a suitable fixed drop distance and nominal drop rate Bulk density and tapped density can be measured according to the method disclosed in the European Pharmacopoeia section 2.9.34 (Bulk density and tapped density of powders), for example, the bulk density may be measured using the PT-SV100 Scott Volumeter and the tapped density may be measured using the PT-TD200 Tap Density Tester (Pharma Test Apparatebau AG, Germany). The bulk density was measured using a PT-SV100 Scott Volumeter (Pharma Test) and the tapped density was measured using a PT-TD200 Tap Density Tester (Pharma Test).

[4] = Hausner ratio, powder flowability; details: calculated from bulk and tapped density
Method: Hausner ratio is also predictive of powder flow, and is calculated according to the following formula: In this case, a Hausner ratio greater than 1.34 is generally considered to be an indication of poor flowability. The relationship between Carr index and/or Hausner ratio with powder flowability is well recognized in the art, for example, as disclosed by M. E. Aulton, in “Powder flow”, chapter 12 of the well-recognized reference book in pharmaceutical technology “Aulton's Pharmaceutics. The design and manufacture of medicines”, Fifth Edition 2018, M. E. Aulton and K. M. G. Taylor, Editors, Elsevier Ltd, as summarized in Table 1: Hausner ratio was also calculated using bulk and tapped density values, according to the following formula: […]

[5] = Solubility compared to non-compacted quercetin; details: compared to standard
Description: It is advantageous, as the poor solubility of quercetin is one of the drawbacks of this substance, as it impairs its biological availability and, consequently, its therapeutic activity.

[6] = Bulk density (PT-SV100 Scott Volumeter); details: after roller compaction vs starting non-compacted quercetin
Description: The bulk density, also called apparent density, can be defined as the ratio of the mass to the volume of an untapped powder sample, as “poured”. The bulk density is given in grams per millilitre (g/ml) and is typically calculated by “pouring” a known mass of powder into a graduated cylinder. Bulk density and tapped density can be measured according to the method disclosed in the European Pharmacopoeia section 2.9.34 (Bulk density and tapped density of powders), for example, the bulk density may be measured using the PT-SV100 Scott Volumeter and the tapped density may be measured using the PT-TD200 Tap Density Tester (Pharma Test Apparatebau AG, Germany). The bulk density was measured using a PT-SV100 Scott Volumeter (Pharma Test) and the tapped density was measured using a PT-TD200 Tap Density Tester (Pharma Test).

| Compressibility (Carr Index) [1] | Flowability (type of flow according to Table 1) [1] | Angle of repose [2] | Tapped density [3] [g/mL] | Hausner ratio [4] | Solubility [5] | Increase of bulk density [6] | SMILES |
| --- | --- | --- | --- | --- | --- | --- | --- |
| 52.27 | very, very poor | >45° | 0.44 | 2.10 |  |  | O=c1c(O)c(-c2ccc(O)c(O)c2)oc2cc(O)cc(O)c12 [Non-compacted quercetin, 3,3′,4′,5,7-pentahydroxyflavone, reference compound] |
| 8.45 | excellent | 25-30° | 0.71 | 1.09 | improved | about 200% | O=c1c(O)c(-c2ccc(O)c(O)c2)oc2cc(O)cc(O)c12 [Compacted quercetin, 3,3′,4′,5,7-pentahydroxyflavone] |
